# In US4120947A, “Xanthine compounds and method of treating bronchospastic and allergic diseases” (priority 1976, dated 1978):
# Where two headings read alike, the source gives them in different places.
# Tests used:
# [1] = tested on: histamine-induced bronchoconstriction in the guinea pig; assay: BD: bronchodilator activity against histamine-induced bronchoconstriction in the guinea pig; settings: for inhibition in vivo at 10 mg/kg / inhibition in vivo at 40 mg/kg / inhibition in vivo at 20 mg/kg / inhibition in vivo at 60 mg/kg / inhibition in vivo at 15 mg/kg / inhibition in vivo at 80 mg/kg: Cavia porcellus, po, read-out: BD (guinea pig), % protection
# Text: BD Bronchodilator activity evaluated against histamine-induced bronchoconstriction in the guinea pig, and expressed as % protection at the stated time interval (in minutes and hours) post-drug against histamine agonist. Doses are expressed in milligrams per kilogram of body weight (mpk) per os (po) or intraperitoneally (ip).
# A modification of the method of Siegmund. O.H., et al., J. Pharmacol. and Exp. Therap. 90:254-9, 1947, is used. Healthy guinea pigs weighing from 250 to 300 grams are placed four at a time and separated by wiring screening in an 11 liter plastic chamber, at the time of peak activity following drug administration. The challenge consists of histamine diphosphate (1% solution) aerosolized in a de Vilbiss -40 nebulizer at 200 mm Hg. Times for prostration are recorded.
# Per cent protection is calculated as follows: [formula] wherein the times are measured in seconds.
# In interpreting the BD data it should be noted that a dose giving less than 40-50% protection is not considered useful. Differences in percent protection of less than 10% are probably not significant.
# [2] = tested on: guinea pig tracheal chain preparation; assay: SP: spasmolytic activity in vitro, guinea pig tracheal chain preparation; settings: Cavia porcellus, read-out: SP in vitro C, molar concentration required to produce maximum relaxation
# Text: SP Spasmolytic activity evaluated in vitro using guinea pig tracheal chain preparation, and expressed as the molar (M) concentration required to produce maximum relaxation. The method used in that of Castillo and de Beer, J. Pharmac. Expt. Therap. 90, 104, 1947.
# [3] = tested on: antigen-induced bronchconstriction in rats sensitized with N. brasliensis; assay: AA: antiallergy (anti-anaphylactic) activity against antigen-induced bronchoconstriction in sensitized rats; settings: Rattus norvegicus, 1 h, read-out: AA (rat), % protection
# Text: The animals are subdivided into control and test groups. Test animals receive a drug either orally, intraperitoneally or intravenously and are challenged with intravenous antigen at fixed time intervals after dosing. Antigen-induced increases in tracheal pressure are monitored and reflect the extent of bronchoconstriction.
# [4] = guinea pig, comparison with corresponding compound
smiles,measurement,setting,value
"CCC(C)Cn1c(=O)n(CC)c(=O)c2c1nc(C)n2C(=O)OC (racemic) [Compound 4494, DL-1-ethyl-3-(2-methyl-1-butyl)-8-methylxanthine-7-carboxylic acid, methyl ester]",inhibition in vivo at 10 mg/kg,[1]; 1 h,0%
same,inhibition in vivo at 40 mg/kg,[1]; 1 h,9%
same,inhibition in vivo at 10 mg/kg,[1]; 6 h,49%
same,inhibition in vivo at 40 mg/kg,[1]; 6 h,80%
same,lethal,"[1]; guinea pig, 80 mpK po",2/2
"CCC(C)Cn1c(=O)n(C)c(=O)c2c1ncn2C(=O)OC (centres unmarked) [Compound 4380, 1-methyl-3-(2-methyl-1-butyl)xanthine-7-carboxylic acid, methyl ester]","BD (guinea pig), % protection","[1]; 20 mpK po, 1h",64%
same,inhibition in vivo at 20 mg/kg,[1]; 1 h,64%
same,inhibition in vivo at 40 mg/kg,[1]; 1 h,99%
same,inhibition in vivo at 40 mg/kg,[1]; 4 h,57%
same,inhibition in vivo at 40 mg/kg,[1]; 6 h,12%
same,EC (maximum relaxation),[2],1430 µM
same,inhibition in vivo at 5 mg/kg,[3]; po,66%
"COC(=O)n1c(C)nc2c1c(=O)n(C)c(=O)n2C [Compound 4378, 1,3,8-trimethylxanthine-7-carboxylic acid, methyl ester]",inhibition in vivo at 60 mg/kg,[1]; 1 h,96%
same,inhibition in vivo at 60 mg/kg,[1]; 4 h,95%
same,inhibition in vivo at 60 mg/kg,[1]; 6 h,89%
same,"onset and duration of action, in words",[1]; [4],effective at lower doses and for longer duration
same,EC (maximum relaxation),[2],100000 µM
same,inhibition in vivo at 75 mg/kg,[3]; ip,54%
"COC(=O)n1cnc2c1c(=O)n(C)c(=O)n2CC(C)C [Compound 4274, 1-methyl-3-(isobutyl)xanthine-7-carboxylic acid, methyl ester]",inhibition in vivo at 15 mg/kg,[1]; 0.5 h,92%
same,inhibition in vivo at 15 mg/kg,[1]; 1 h,87%
same,inhibition in vivo at 15 mg/kg,[1]; 2 h,64%
same,inhibition in vivo at 15 mg/kg,[1]; 4 h,18%
same,lethal,"[1]; guinea pig, 40 mpK po",1/6
same,"bronchodilator effectiveness, in words",[1]; [4],greater protection than 4258 at equal doses
same,EC (maximum relaxation),[2],500 µM
same,inhibition in vivo at 5 mg/kg,[3]; ip,74%
"CCCC(C)Cn1c(=O)n(C)c(=O)c2c1nc(C)n2C(=O)OC (racemic) [Compound 4515, DL-1,8-dimethyl-3-(2-methyl-1-pentyl)xanthine-7-carboxylic acid, methyl ester]",inhibition in vivo at 20 mg/kg,[1]; 1 h,7%
same,inhibition in vivo at 40 mg/kg,[1]; 1 h,100%
"CCOC(=O)n1c(C)nc2c1c(=O)n(C)c(=O)n2CC(C)CC (racemic) [Compound 4477, DL-1,8-dimethyl-3-(2-methyl-1-butyl)xanthine-7-carboxylic acid, ethyl ester]",inhibition in vivo at 10 mg/kg,[1]; 0.5 h,47%
same,inhibition in vivo at 10 mg/kg,[1]; 1 h,87%
same,inhibition in vivo at 10 mg/kg,[1]; 6 h,50%
CCCC(C)Cn1c(=O)n(C)c(=O)c2c1ncn2C(=O)OC (centres unmarked) [Compound 4377],inhibition in vivo at 20 mg/kg,[1]; 1 h,64%
same,inhibition in vivo at 80 mg/kg,[1]; 1 h,72%
same,inhibition in vivo at 80 mg/kg,[1]; 4 h,0%
"CCc1nc2c(c(=O)n(CC)c(=O)n2CC(C)CC)n1C(=O)OC (racemic) [Compound 4498, DL-1,8-diethyl-3-(2-methyl-1-butyl)xanthine-7-carboxylic acid, methyl ester]",inhibition in vivo at 40 mg/kg,[1]; 1 h,15%
same,inhibition in vivo at 80 mg/kg,[1]; 1 h,63%
same,inhibition in vivo at 40 mg/kg,[1]; 6 h,38%
same,inhibition in vivo at 80 mg/kg,[1]; 6 h,79%
